Assay results from patent US8217035B2, “Pyrimidine derivatives used as PI-3-kinase inhibitors” (Novartis AG, priority 2006, dated 2012).
Where two headings read alike, the source gives them in different places.

Assays:
PI3 kinase alpha = PI3 kinase alpha (Homo sapiens, UniProt P42336); experiment: PI3K ATP depletion assay (Biological Method 1, Assay 3; KinaseGlo luminescence); format: biochemical; conditions: ATP depletion assay, read-out: PI3 Kinase Alpha, IC50
In short: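 Compound in DMSO was mixed with 10 nM PI3 kinase and 5 μg/mL phosphatidylinositol, and the reaction was started with 2 μM ATP. It ran to about 50% ATP depletion and was stopped with KinaseGlo.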

[1] = system: pSer473 Akt in A2780 cells; experiment: pSer473 Akt assay to monitor PI3K pathway in A2780 cells (Biological Method 2, MSD); format: cell-based; conditions: Homo sapiens, inhibition of Akt phosphorylation
Procedure: In this method, an assay for measuring the PI3K-mediated pSer473-Akt status after treatment with representative inhibitor compounds of the invention is described.
A2780 cells were cultured in DMEM supplemented with 10% FBS. L-glutamine, sodium pyruvate, and antibiotics. Cells were plated in the same medium at a density of 15,000 cells per well into 96 well tissue culture plates, with outside wells vacant, and allowed to adhere overnight.
Test compounds supplied in DMSO were diluted further into DMSO at 500 times the desired final concentrations before dilution into culture media to 2 times the final concentrations. Equal volumes of 2× compounds were added to the cells in 96 well plates and incubated at 37° C. for one hour. The media and compounds were then removed, the plates chilled and cells lysed in a lysis buffer (150 mM NaCl, 20 mM Tris pH 7.5, 1 mM EDTA, 1 mM EGTA, 1% Triton X-100) supplemented with phosphatase and protease inhibitors. After thorough mixing, lysates were transferred to both pSer473Akt and total Akt assay plates from Meso Scale Discovery (MSD), and incubated overnight with shaking at 4° C.
The assays were read on a SECTOR Imager 6000 instrument (Meso Scale Discovery). Ratios of the signal from pSer473Akt and total Akt assays were used to correct for any variability and the percent inhibition of pSer473Akt from the total signal seen in cells treated with compound versus DMSO alone was calculated and used to determine EC50 values for each compound.

[2] = system: A2780 ovarian cancer cells; experiment: Cellular proliferation in A2780 cells, Cell Titer Glo (Biological Method 4); format: cell-based; conditions: Homo sapiens
In short: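 Viability after 72 h compound exposure (37 °C, 5% CO2) was read by Cell Titer Glo and an EC50 derived, each condition in duplicate. A2780 ovarian cells had been plated at 1,000 per well in DMEM/10% FBS at least 2 h beforehand.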

[3] = ovarian cancer cell line A2780, Biological Method 4

Sequence of PI3 kinase alpha (P42336 whole entry): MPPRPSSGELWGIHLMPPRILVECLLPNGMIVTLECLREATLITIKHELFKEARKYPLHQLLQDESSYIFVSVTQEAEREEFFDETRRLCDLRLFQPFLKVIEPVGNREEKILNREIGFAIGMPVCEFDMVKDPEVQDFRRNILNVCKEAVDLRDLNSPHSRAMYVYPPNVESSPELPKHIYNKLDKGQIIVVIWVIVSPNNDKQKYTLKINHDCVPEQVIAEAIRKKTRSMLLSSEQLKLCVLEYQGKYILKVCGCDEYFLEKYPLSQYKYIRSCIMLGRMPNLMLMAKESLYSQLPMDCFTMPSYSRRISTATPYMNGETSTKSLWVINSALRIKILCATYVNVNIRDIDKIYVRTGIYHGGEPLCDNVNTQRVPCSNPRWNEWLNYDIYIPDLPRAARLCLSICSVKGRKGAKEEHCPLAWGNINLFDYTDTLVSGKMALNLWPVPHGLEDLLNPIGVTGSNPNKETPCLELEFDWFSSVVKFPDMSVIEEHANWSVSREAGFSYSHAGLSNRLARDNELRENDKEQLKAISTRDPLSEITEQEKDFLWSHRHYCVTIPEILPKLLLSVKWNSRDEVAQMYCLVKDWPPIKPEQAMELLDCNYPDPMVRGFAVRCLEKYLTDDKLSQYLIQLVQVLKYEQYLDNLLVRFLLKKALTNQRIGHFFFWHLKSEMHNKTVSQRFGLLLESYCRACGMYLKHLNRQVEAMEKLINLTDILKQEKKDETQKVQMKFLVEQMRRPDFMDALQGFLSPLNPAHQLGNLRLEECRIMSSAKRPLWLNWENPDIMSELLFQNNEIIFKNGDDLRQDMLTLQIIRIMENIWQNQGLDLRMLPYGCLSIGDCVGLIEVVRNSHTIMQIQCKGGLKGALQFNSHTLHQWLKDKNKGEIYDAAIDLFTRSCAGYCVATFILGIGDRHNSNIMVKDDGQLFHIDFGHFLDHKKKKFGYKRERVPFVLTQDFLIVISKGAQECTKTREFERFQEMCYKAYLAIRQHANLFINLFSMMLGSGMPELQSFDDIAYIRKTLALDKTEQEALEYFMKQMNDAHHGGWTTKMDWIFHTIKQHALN
Sequence of PI3 kinase alpha (P27986 whole entry partner): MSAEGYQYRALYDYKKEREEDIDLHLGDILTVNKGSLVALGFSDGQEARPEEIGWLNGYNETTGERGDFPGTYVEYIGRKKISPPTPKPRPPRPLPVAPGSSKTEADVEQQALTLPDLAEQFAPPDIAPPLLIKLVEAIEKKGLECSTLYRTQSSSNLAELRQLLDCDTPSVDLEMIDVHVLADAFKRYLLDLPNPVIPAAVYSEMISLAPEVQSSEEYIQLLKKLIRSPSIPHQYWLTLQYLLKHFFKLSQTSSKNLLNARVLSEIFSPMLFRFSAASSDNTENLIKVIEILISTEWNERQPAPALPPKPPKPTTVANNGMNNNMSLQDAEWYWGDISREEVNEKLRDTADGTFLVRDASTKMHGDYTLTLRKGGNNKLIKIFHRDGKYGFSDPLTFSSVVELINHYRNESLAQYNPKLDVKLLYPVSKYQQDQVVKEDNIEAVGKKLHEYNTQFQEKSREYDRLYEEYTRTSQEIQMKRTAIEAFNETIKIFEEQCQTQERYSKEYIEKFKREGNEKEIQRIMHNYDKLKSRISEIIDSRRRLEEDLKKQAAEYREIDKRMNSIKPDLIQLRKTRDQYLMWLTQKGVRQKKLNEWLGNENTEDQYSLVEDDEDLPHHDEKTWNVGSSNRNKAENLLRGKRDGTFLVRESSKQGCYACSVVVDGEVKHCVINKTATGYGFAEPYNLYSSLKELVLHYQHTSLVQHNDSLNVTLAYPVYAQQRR

EC50 ([1]; A2780 cells) [µM]	EC50 ([2]; ovarian cancer cell line A2780) [µM]	Structure (SMILES)	also measured
< 1	< 1	Nc1ncc(-c2cc(O[C@H]3CCOC3)nc(N3CCOCC3)n2)c(=O)[nH]1 [Compound 39]	IC50 (PI3 kinase alpha): < 1 µM
< 1	< 10	Nc1ncc(-c2cc(Nc3ccc(Oc4ccccc4)nc3)nc(N3CCOCC3)n2)cn1 [Compound 107]	–
< 1	< 1	Cc1nc(N)ncc1-c1cc(Nc2cnc3ccccc3c2)nc(N2CCOCC2)n1 [Compound 96]	–
–	–	CN(C)CCOc1ccc(Nc2cc(-c3ccc(N)nc3)nc(N3CCOCC3)n2)cn1 [Compound 198]	IC50 (PI3 kinase alpha; Biological Method 1): < 1 µM; EC50 ([1]; A2780, Biological Method 2): < 1 µM
< 1	< 1	CN1CCC(Oc2ccc(Nc3cc(-c4cnc(N)nc4)nc(N4CCOCC4)n3)cn2)CC1 [Compound 37]	–
< 1	< 1	Nc1cc(C(F)(F)F)c(-c2cc(Nc3cnc4ccccc4c3)nc(N3CCOCC3)n2)cn1 [Compound 193]	–
< 1	< 1	Nc1ncc(-c2cc(N3CCOCC3)nc(N3CCOCC3)n2)cn1 [Compound 100]	–
< 1	< 1	Nc1ncc(-c2cc(N3CCOCC3)nc(N3CCOCC3)n2)c(C(F)(F)F)n1 [Compound 85]	–
< 1	< 10	Nc1ncc(-c2ccnc(N3CCOCC3)n2)cn1 [Compound 132]	–
< 1	< 1	Nc1cc(Cl)c(-c2cc(Nc3cnc4ccccc4c3)nc(N3CCOCC3)n2)cn1 [Compound 175]	–
< 1	< 1	Nc1ncc(-c2cc(Nc3cnc4ccccc4c3)nc(N3CCOCC3)n2)c(C(F)(F)F)n1 [Compound 192]	–
< 1	< 10	Nc1cc(Cl)c(-c2cc(N3CCOCC3)nc(N3CCOCC3)n2)cn1 [Compound 114]	–
< 1	< 1	N#Cc1cc(N)ncc1-c1cc(N2CCOCC2)nc(N2CCOCC2)n1 [Compound 162]	–
< 1	< 1	Nc1ncc(-c2cc(Nc3cnc4ccccc4c3)nc(N3CCOCC3)n2)c(N)n1 [Compound 147]	–
< 1	< 1	Nc1ncc(-c2cc(Nc3cnc4ccccc4c3)nc(N3CCOCC3)n2)cn1 [Compound 1]	–
< 10	< 1	N#Cc1cc(N)ncc1-c1cc(Nc2cnc3ccccc3c2)nc(N2CCOCC2)n1 [Compound 5]	–
–	–	CS(=O)(=O)Nc1cccc(Nc2cc(-c3ccc(N)nc3)nc(N3CCOCC3)n2)c1 [Compound 361]	IC50 (PI3 kinase alpha; Biological Method 1): < 1 µM; EC50 [2, 3]: < 10 µM
< 1	< 1	Nc1ncc(-c2cc(N3CCOCC3)nc(N3CCOCC3)n2)c(=O)[nH]1 [Compound 77]	–
–	–	Nc1ccc(-c2cc(Nc3ccnc4cc(C(F)(F)F)ccc34)nc(N3CCOCC3)n2)cn1 [Compound 380]	IC50 (PI3 kinase alpha; Biological Method 1): < 1 µM; EC50 [2, 3]: < 10 µM
–	–	COc1cccc(CCNc2cc(-c3ccc(N)nc3)nc(N3CCOCC3)n2)c1 [Compound 303]	IC50 (PI3 kinase alpha; Biological Method 1): < 1 µM; EC50 [2, 3]: < 10 µM
–	< 10	CN(c1cc(-c2cnc(N)nc2)nc(N2CCOCC2)n1)C1CCCCC1 [Compound 404]	IC50 (PI3 kinase alpha): < 1 µM
–	< 10	CC(=O)N1CC[C@H](Oc2cc(-c3cnc(N)cc3C(F)(F)F)nc(N3CCOCC3)n2)C1 [Compound 22]	IC50 (PI3 kinase alpha): < 1 µM
–	–	CS(=O)(=O)c1cccc(Nc2cc(-c3cnc(N)cc3C(F)(F)F)nc(N3CCOCC3)n2)c1 [Compound 238]	IC50 (PI3 kinase alpha; Biological Method 1): < 1 µM; EC50 [2, 3]: < 10 µM
–	< 25	CNc1cc(-c2cnc(N)nc2)nc(N2CCOCC2)n1 [Compound 401]	IC50 (PI3 kinase alpha): < 1 µM
–	–	Nc1cc(C(F)(F)F)c(-c2cc(N3CC[C@H](F)C3)nc(N3CCOCC3)n2)cn1 [Compound 332]	IC50 (PI3 kinase alpha; Biological Method 1): < 1 µM; EC50 [2, 3]: < 1 µM
–	–	CC(=O)c1cccc(-c2cc(-c3ccc(N)nc3)nc(N3CCOCC3)n2)c1 [Compound 252]	IC50 (PI3 kinase alpha; Biological Method 1): < 1 µM; EC50 [2, 3]: < 10 µM
–	–	Nc1ccc(-c2cc(Nc3ccc(-c4cnco4)cc3)nc(N3CCOCC3)n2)cn1 [Compound 357]	IC50 (PI3 kinase alpha; Biological Method 1): < 1 µM; EC50 [2, 3]: < 25 µM
